Experimental data from patent US6174907A, “Benzimidazole compounds containing 1,2,4-triazole ring, and compositions and methods of use containing the same” (Fuji Photo Film Co., Ltd., priority 1995, dated 2001).
Read-outs that look alike come from different tables or passages of the source.

Tests used:
[1] = test system: mouse peritoneal macrophages; test: Suppression of foaming of macrophages (cholesterol ester synthesis) in vitro; assay type: cell-based, mouse (female ICR); settings: for activity at 5 µM: Mus musculus, Peritoneal macrophage, 16 hours, relative to control as 100%, smaller value = more potent suppression, read-out: Rate of CE synthesis (%)
Protocol: Activity of the compounds of the present invention for suppressing the foaming of macrophages
(§1) Activity of the compounds of the present invention for suppressing the foaming of macrophages, which triggers arterial sclerosis, was examined by an in vitro experiment using mouse peritoneal macrophages. 15-Week old female ICR mice (Nippon SLC) were subjected to bleeding by cutting off their cervicalis, and Hanks buffer (Nippon Seiyaku) was injected into their peritoneal cavities. After abdominal regions of the mice were massaged, the buffer was recovered immediately, and then the resulting buffer was centrifuged at 1,000 r.p.m. for five minutes to collect peritoneal macrophages. Then, the collected macrophages were suspended in GTI medium (Wako Pure Chemical Industries), and inoculated onto a 24-well microtiter plate. After the macrophages were cultivated at 37° C. under 5% CO2 for two hours, the culture medium was changed with Dulbecco Modified Eagle Medium (MEM, Nippon Seiyaku). The macrophages were further cultivated at 37° C. under 5% CO2 for 16 hours, and then a test compound and liposomes were added to the culture.
1) Test compound: dissolved in DMSO (Wako Pure Chemical Industries),
PC: Phosphatidylcholine (Funakoshi);
PS: Phosphatidylserine (Funakoshi);
DCP: Dicetylphosphate (Funakoshi);
CHOL: Cholesterol (Sigma)
(§2) After cultivation was further continued at 37° C. under 5% CO2 for 16 hours, lipid fraction was extracted with chloroform and methanol. The extracted lipid fraction was dissolved in isopropyl alcohol, and the produced cholesterol ester (CE) was quantified by an enzymatic luminescence method. Yield of the cholesterol ester was calculated as a relative ratio based on yield of the control as 100% where no test compound was added. Cytotoxicity was examined microscopically by observing morphological alteration of cells. In the tables, compound numbers correspond to those of the compounds of present invention described in the examples.

[2] = test system: mouse peritoneal macrophages; test: Cytotoxicity examined microscopically (morphological alteration of cells); assay type: cell-based, mouse (female ICR); settings: 5 μM, observed microscopically
Protocol: as §1, §2

SMILES | activity at 5 µM ([1]; Table 4) [%] | Cytotoxicity ([2]; Table 4) | activity at 5 µM ([1]; Table 3) [%] | Cytotoxicity ([2]; Table 3) | Activity for suppressing the foaming of macrophages (in words) [1]
c1ccc2[nH]c(SCCCCCSc3ncc[nH]3)nc2c1 [Compound B1, 1-(2'-benzimidazolylthio)-5-(2"-imidazolylthio)pentane] | 41 | Not observed | – | – | –
Cc1cc2nc(SCCCCCSc3nc4cc(Cl)c(Cl)cc4[nH]3)[nH]c2cc1C [Compound A15, 1-(2'-(5',6'-dichlorobenzimidazolyl)thio)-5-(2"-(5",6"-dimethylbenzimidazolyl)thio)pentane] | – | – | 36 | Not observed | –
Cc1cc(O)nc(SCCCCCSc2nc3ccccc3[nH]2)n1 [Compound B52] | 49 | Not observed | – | – | –
c1ccc(SCCCCCSc2nc3ccccc3[nH]2)nc1 [Compound B30, 5-(2'-Benzimidazolylthio)-1-(2"-pyridylthio)pentane] | 9 | Not observed | – | – | –
CCCCCCCCn1nnnc1SCCCCCSc1nc2ccccc2[nH]1 [Compound B11] | 18 | Not observed | – | – | –
c1ccc2[nH]c(SCCCCCSc3ncnc4nc[nH]c34)nc2c1 [Compound B59] | 9.2 | Not observed | – | – | –
S=c1sc(SCCCCCSc2nc3ccccc3[nH]2)nn1-c1ccccc1 [Compound B22] | 21 | Not observed | – | – | –
Clc1ccc2[nH]c(SCCCCCSc3nc4ccccc4[nH]3)nc2c1 [Compound A2, 1-(2'-(5'-chlorobenzimidazolyl)thio)-5-(2"-benzimidazolylthio)pentane] | – | – | 52 | Not observed | –
c1ccc2[nH]c(CCCCCSc3nc4ccccc4[nH]3)nc2c1 [Compound A27, 2-(5-(2'-benzimidazolylthio)pentyl)benzimidazole] | – | – | 48 | Not observed | –
c1ccc2nc(SCCCCCSc3nc4ccccc4[nH]3)ccc2c1 [Compound B57] | 26 | Not observed | – | – | –
c1ccc(SCCCCSc2nc3ccccc3[nH]2)nc1 [Compound B29] | 14 | Not observed | – | – | –
N#Cc1ccc2[nH]c(SCCCCCSc3nc4ccccc4[nH]3)nc2c1 [Compound A17, 1-(2'-(5'-cyanobenzimidazolyl)thio)-5-(2"-benzimidazolylthio)pentane] | – | – | 24 | Not observed | –
CCOc1ccc2nc(SCCCCCSc3nc4ccccc4[nH]3)sc2c1 [Compound A35, 1-(2'-benzimidazolylthio)-5-(2"-(6"-ethoxybenzothiazolyl)thio)pentane] | – | – | 25 | Not observed | –
c1ccc(-c2ccc3oc(SCCCCCSc4nc5ccccc5[nH]4)nc3c2)cc1 [Compound A39, 1-(2'-benzimidazolylthio)-5-(2"-(5"-phenylbenzoxazolyl)thio)pentane] | – | – | 24 | Not observed | –
Cc1cc2nc(SCCCCCSc3nc4ccccc4o3)[nH]c2cc1C [Compound A38] | – | – | 16 | Not observed | –
Oc1ccc2[nH]c(SCCCCCSc3nc4ccccc4[nH]3)nc2c1 [Compound A6, 1-(2'-benzimidazolylthio)-5-(2"-(5"-hydroxybenzimidazolyl)thio)pentane] | – | – | 46 | Not observed | –
Cc1ccnc(SCCCCCSc2nc3ccccc3[nH]2)n1 [Compound B50] | 22 | Not observed | – | – | –
CC(=O)Nc1nnc(SCCCCCSc2nc3ccccc3[nH]2)n1C [Compound B9] | 35 | Not observed | – | – | –
c1ccc2[nH]c(SCCCCCSc3ccncc3)nc2c1 [Compound B28] | 7.6 | Not observed | – | – | –

SMILES | activity at 5 µM ([1]; Table 4) [%] | Cytotoxicity ([2]; Table 4) | activity at 5 µM ([1]; Table 3) [%] | Cytotoxicity ([2]; Table 3) | Activity for suppressing the foaming of macrophages (in words) [1]
c1ccc(-c2nc(SCSc3nc4ccccc4[nH]3)[nH]c2-c2ccccc2)cc1 [Control Compound, reference compound] | 102 | Not observed | – | – | did not exhibit activity for suppressing the foaming of macrophages
Cc1ccc2[nH]c(SCCCCCCCCSc3nc4ccccc4[nH]3)nc2c1 [Compound A20, 1-(2'-(5'-methylbenzimidazolyl)thio)-8-(2"-benzimidazolylthio)octane] | – | – | 61 | Not observed | –
COc1ccc2[nH]c(SCCCCCSc3nc4ccccc4[nH]3)nc2c1 [Compound A5, 1-(2'-benzimidazolylthio)-5-(2"-(5"-methoxybenzimidazolyl)thio)pentane] | – | – | 39 | Not observed | –
COc1ccc2[nH]c(SCCCCCSc3ccccn3)nc2c1 [Compound B34] | 37 | Not observed | – | – | –
CS(=O)(=O)Nc1ccc2[nH]c(SCCCCCSc3nc4ccccc4[nH]3)nc2c1 [Compound A7, 1-(2'-benzimidazolylthio)-5-(2"-(5"-methanesulfonylamino-benzimidazolyl)thio)pentane] | – | – | 22 | Not observed | –
Cc1ccc2[nH]c(SCCCCCCSc3nc4ccccc4[nH]3)nc2c1 [Compound A19, 1-(2'-(5'-methylbenzimidazolyl)thio)-6-(2"-benzimidazolylthio)hexane] | – | – | 54 | Not observed | –
CC1(C)COC(SCCCCCSc2nc3ccccc3[nH]2)=N1 [Compound B23] | 38 | Not observed | – | – | –
Clc1cc2nc(CCCCCSc3ccccn3)[nH]c2cc1Cl [Compound B44] | 51 | Not observed | – | – | –
c1ccc(-n2nnnc2SCCCCCSc2nc3ccccc3[nH]2)cc1 [Compound B12] | 14 | Not observed | – | – | –
Cc1ccc2[nH]c(SCCOCCSc3nc4ccccc4[nH]3)nc2c1 [Compound A21] | – | – | 24 | Not observed | –
c1ccc(SCCOCCSc2nc3ccccc3[nH]2)nc1 [Compound B67] | 54 | Not observed | – | – | –
c1ccc2[nH]c(CCCCCCCCCCCSc3nc4ccccc4[nH]3)nc2c1 [Compound A32, 2-(11-(2'-benzimidazolylthio)undecyl)benzimidazole] | – | – | 62 | Not observed | –
c1ccc2[nH]c(SCCCCCSc3nnc(-c4ccncc4)o3)nc2c1 [Compound B24] | 9.5 | Not observed | – | – | –
Cc1ccnc(SCCCCCSc2nc3ccccc3[nH]2)c1 [Compound B41] | 19 | Not observed | – | – | –
c1cnc2c(SCCCCCSc3nc4ccccc4[nH]3)cccc2c1 [Compound B62] | 25 | Not observed | – | – | –
c1ccc(-n2ccnc2SCCCCCSc2nc3ccccc3[nH]2)cc1 [Compound B3] | 34 | Not observed | – | – | –
Cn1c(CCCCCSc2nc3ccccc3n2C)nc2ccccc21 [Compound A26, 1-methyl-2-(5-(2'-(1-methylbenzimidazolyl)thio)pentyl)benzimidazole] | – | – | 35 | Not observed | –
Cn1c(SCCCCCSc2ccccn2)nc2ccccc21 [Compound B64, 5-(2'-(1'-methylbenzimidazolyl)thio)-1-(2"-pyridylthio)pentane] | 24 | Not observed | – | – | –
